In patent US12098145B2 (Libra Therapeutics, Inc., priority 2022, dated 2024):

Key:
TRPML1 = target: T1, TRPML1 (Homo sapiens, UniProt Q9GZU1); assay: Cellular TRPML1 assay (FLIPR, GCaMP6f calcium read-out); format: cell-based; details: HEKT-REx/GCaMP6f/TRPML1 cells, FLIPR TETRA, kinetic response over 300 seconds; read-out: TRPML1 FLIPR pEC50 (converted)
T1 construct: expressed in transfected cells; host or cells: HEK T-REx cells stably expressing GCaMP6f and TRPML1
Outline: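 HEK T-REx cells stably expressing TRPML1 and GCaMP6f, seeded 24 h before in Optimem + 0.5% FBS. After ~10 min pre-incubation at room temperature, compounds in Ca2+-free Tyrode's buffer were injected on FLIPR Tetra (final DMSO 0.5%). Calcium fluorescence kinetics followed for 300 s.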

TFEB = TFEB translocation assay (TFEB reporter in U2OS cells, imaging); format: cell-based; details: Homo sapiens; U2OS cell line with TFEB reporter, 2 hours incubation, nucleus to cytoplasm ratio, normalized to Torin-1; read-out: TFEB Translocation pEC50 (converted)
Method: Example B: TFEB Translocation Assay
Reporter TFEB: the reporter is fused to a sequence of monomeric red fluorescent protein.
The reporter TFEB have been stably expressed in U2OS cell line and used as read-out.
Experiments were performed in 384 MTP well format. Cells were seeded in 384-w at a density of 4000 cells/well in 20 μl/well complete growth medium without antibiotics. Twenty-four hours later, cells were treated with compounds and incubated for further 2 hours. Then the cells were imaged and assayed for the response to various compounds using the reporter for TFEB expressed in the cells as readout.
The experiments were performed in a 384-well format according to the following procedure: • 24 h after seeding, cell culture medium was carefully removed and replaced with 20 μl of Opti-MEM (30′ incubation at 37° C. before compound addition) • Then, cells were incubated with compounds diluted in Opti-MEM+0.015% Tween 80 at the desired concentration, with the reference molecule (agonist) Torin-1 at a top concentration of 1 μM (max signal), and with the other reference molecule (agonist) MLSA-5 at top concentration of 20 μM for 2 hours at 37° C. and 5% CO2. The final percentage of DMSO was 0.5% in all the conditions. • Staining of the nuclei was obtained by incubating the cells with 24 μM/well of Hoechst 3342 in standard Tyrode's buffer for 15 min at RT • Then the cells were fixed with PFA 4% for 30 min at RT • After three washes with standard Tyrode's buffer, samples were acquired by recording two fluorescence emission channels (DS-red and blue) at 20× magnification and with at least 3 fields of view per well in an Operetta CLS microscope (PerkinElmer). • Image analysis was performed by using Harmony software (PerkinElmer). The image analysis involved the following steps: flat-field illumination correction, nuclei segmentation, cytoplasm segmentation and calculation of intensity fluorescence in the cytosol and nuclei compartments. Measurements of signal intensity ratio (nucleus to cytoplasm) was used to obtain information on the effects of compounds on the TFEB translocation. • Data from image analysis measurements were finally loaded and analyzed for normalization and fitting procedures in Genedata Screener© software. Data Analysis
Feature: Mean translocation ratio (mean/well)
Data normalization: Stimulator—Neutral control
The GeneData Screener method we have used, normalizes the median of the Stimulator control wells (Torin-1) to 100% and the median of the Neutral control wells (DMSO) to 0% Activity[%]=100*(x−<Min>)/(<“Max”>−<Min>)

T1 sequence (Q9GZU1 whole entry): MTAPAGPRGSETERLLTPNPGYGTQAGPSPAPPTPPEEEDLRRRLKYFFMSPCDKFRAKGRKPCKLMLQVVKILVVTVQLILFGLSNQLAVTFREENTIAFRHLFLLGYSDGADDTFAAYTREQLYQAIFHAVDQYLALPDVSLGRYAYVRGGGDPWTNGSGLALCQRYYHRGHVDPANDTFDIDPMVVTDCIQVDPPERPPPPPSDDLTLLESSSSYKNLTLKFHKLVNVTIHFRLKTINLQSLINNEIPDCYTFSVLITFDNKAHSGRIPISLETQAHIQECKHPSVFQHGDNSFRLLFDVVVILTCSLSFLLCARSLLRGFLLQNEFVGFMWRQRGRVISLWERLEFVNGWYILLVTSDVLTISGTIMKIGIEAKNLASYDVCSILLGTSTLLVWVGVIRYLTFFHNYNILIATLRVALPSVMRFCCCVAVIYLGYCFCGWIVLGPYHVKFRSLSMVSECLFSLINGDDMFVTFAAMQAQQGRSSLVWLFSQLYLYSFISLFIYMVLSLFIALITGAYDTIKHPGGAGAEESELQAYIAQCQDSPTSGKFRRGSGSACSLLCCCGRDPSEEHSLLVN

O=C(Nc1ccc(N2CCCCC2)c(F)c1)c1nc(N2CCC3(C2)CC(F)(F)C3)oc1CC(F)(F)F [Example 28, 2-(2,2-difluoro-6-azaspiro[3.4]octan-6-yl)-N-(3-fluoro-4-(piperidin-1-yl)phenyl)-5-(2,2,2-trifluoroethyl)oxazole-4-carboxamide]
EC50 (TRPML1): 1000 to 10000 nM | EC50 (TFEB): 1000 to 10000 nM

O=C(Nc1ccc(N2CCCCC2)c(F)c1)c1nc(N2CC3(C2)CC(F)(F)C3)oc1CC(F)(F)F [Example 30, 2-{6,6-difluoro-2-azaspiro[3.3]heptan-2-yl}-N-[3-fluoro-4-(piperidin-1-yl)phenyl]-5-(2,2,2-trifluoroethyl)oxazole-4-carboxamide]
EC50 (TRPML1): 1000 to 10000 nM | EC50 (TFEB): 1000 to 10000 nM

O=C(Nc1ccc(N2CCCCC2)c(F)c1)c1nc(N2CCC3(CCOC3)C2)oc1CC(F)(F)F (stereo not drawn) [Example 31, N-(3-fluoro-4-(piperidin-1-yl)phenyl)-2-(2-oxa-7-azaspiro[4.4]nonan-7-yl)-5-(2,2,2-trifluoroethyl)oxazole-4-carboxamide]
EC50 (TRPML1): 1000 to 10000 nM | EC50 (TFEB): 1000 to 10000 nM

O=C(Nc1ccc(N2CCCCC2)c(F)c1)c1nc(N2CCCC2)oc1CC(F)(F)F [Example 32, N-(3-fluoro-4-(piperidin-1-yl)phenyl)-2-(pyrrolidin-1-yl)-5-(2,2,2-trifluoroethyl)oxazole-4-carboxamide]
EC50 (TRPML1): 1000 to 10000 nM | EC50 (TFEB): 1000 to 10000 nM

O=C(Nc1ccc(N2CCCCC2)c(F)c1)c1nc(N2CCC3(COC3)C2)oc1CC(F)(F)F [Example 33, N-(3-fluoro-4-(piperidin-1-yl)phenyl)-2-(2-oxa-6-azaspiro[3.4]octan-6-yl)-5-(2,2,2-trifluoroethyl)oxazole-4-carboxamide]
EC50 (TRPML1): 10 to 1000 nM | EC50 (TFEB): 1000 to 10000 nM

O=C(Nc1cc(F)c(OC2CC3C[C@H]3C2)c(F)c1)c1nc(N2CC3CCOC3C2)oc1CC(F)(F)F (stereo partly drawn) [Example 36, N-(4-{cis-bicyclo[3.1.0]hexan-3-yloxy}-3,5-difluorophenyl)-2-{hexahydro-5H-furo[2,3-c]pyrrol-5-yl}-5-(2,2,2-trifluoroethyl)oxazole-4-carboxamide]
EC50 (TRPML1): 10 to 1000 nM | EC50 (TFEB): 10 to 1000 nM

O=C(Nc1cc(F)c(OC2CC3C[C@H]3C2)c(F)c1)c1nc(N2CCC3(CC3)C2)oc1CC(F)(F)F (stereo partly drawn) [Example 38]
EC50 (TRPML1): 10 to 1000 nM | EC50 (TFEB): 10 to 1000 nM

O=C(Nc1cc(F)c(O[C@@H]2C[C@@H]3C[C@@H]3C2)c(F)c1)c1nc(N2CCCC2)oc1CC(F)(F)F [Example 39, N-(4-(cis-bicyclo[3.1.0]hexan-3-yloxy)-3,5-difluorophenyl)-2-(pyrrolidin-1-yl)-5-(2,2,2-trifluoroethyl)oxazole-4-carboxamide]
EC50 (TRPML1): 10 to 1000 nM | EC50 (TFEB): 10 to 1000 nM

O=C(Nc1ccc(OC2CCOC2)c(F)c1)c1nc(N2CCCC2)oc1CC(F)(F)F (stereo not drawn) [Example 47, N-[3-fluoro-4-(oxolan-3-yloxy)phenyl]-2-(pyrrolidin-1-yl)-5-(2,2,2-trifluoroethyl)oxazol-4-carboxamide]
EC50 (TRPML1): 1000 to 10000 nM | EC50 (TFEB): 1000 to 10000 nM

O=C(Nc1ccc(OC2CCCC2)c(F)c1)c1nc(N2CC3(C2)CC(F)(F)C3)oc1CC(F)(F)F [Example 48, N-[4-(cyclopentyloxy)-3-fluorophenyl]-2-{6,6-difluoro-2-azaspiro[3.3]heptan-2-yl}-5-(2,2,2-trifluoroethyl)oxazole-4-carboxamide]
EC50 (TRPML1): 1000 to 10000 nM | EC50 (TFEB): 10 to 1000 nM

CC1CCC(Oc2ccc(NC(=O)c3nc(N4CCCC4)oc3CC(F)(F)F)cc2F)C1 (stereo not drawn) [Example 50, N-(3-fluoro-4-((3-methylcyclopentyl)oxy)phenyl)-2-(pyrrolidin-1-yl)-5-(2,2,2-trifluoroethyl)oxazole-4-carboxamide]
EC50 (TRPML1): 1000 to 10000 nM | EC50 (TFEB): 1000 to 10000 nM

CC1CCCN1c1nc(C(=O)Nc2ccc(OC3CCCC3)c(F)c2)c(CC(F)(F)F)o1 (stereo not drawn) [Example 54, N-(4-(cyclopentyloxy)-3-fluorophenyl)-2-(2-methylpyrrolidin-1-yl)-5-(2,2,2-trifluoroethyl)oxazole-4-carboxamide]
EC50 (TRPML1): 1000 to 10000 nM | EC50 (TFEB): 10000 to 100000 nM

CC1(C)CCCC1Oc1ccc(NC(=O)c2nc(N3CCCC3)oc2CC(F)(F)F)cc1F (stereo not drawn) [Example 55, N-(4-((2,2-dimethylcyclopentyl)oxy)-3-fluorophenyl)-2-(pyrrolidin-1-yl)-5-(2,2,2-trifluoroethyl)oxazole-4-carboxamide]
EC50 (TRPML1): 1000 to 10000 nM | EC50 (TFEB): 1000 to 10000 nM

O=C(Nc1ccc(OC2CCCC2)c(F)c1)c1nc(N2CCC3(COC3)C2)oc1CC(F)(F)F [Example 64, N-(4-(cyclopentyloxy)-3-fluorophenyl)-2-(2-oxa-6-azaspiro[3.4]octan-6-yl)-5-(2,2,2-trifluoroethyl)oxazole-4-carboxamide]
EC50 (TRPML1): 1000 to 10000 nM | EC50 (TFEB): 1000 to 10000 nM

O=C(Nc1ccc(OC2CCCCC2(F)F)c(F)c1)c1nc(N2CCC3(COC3)C2)oc1CC(F)(F)F (stereo not drawn) [Example 68, N-(4-((2,2-difluorocyclohexyl)oxy)-3-fluorophenyl)-2-(2-oxa-6-azaspiro[3.4]octan-6-yl)-5-(2,2,2-trifluoroethyl)oxazole-4-carboxamide]
EC50 (TRPML1): 10 to 1000 nM | EC50 (TFEB): 10 to 1000 nM

O=C(Nc1ccc(O[C@@H]2C[C@@H]3C[C@@H]3C2)c(F)c1)c1nc(N2CCC3(COC3)C2)oc1CC(F)(F)F [Example 73, N-(4-{cis-bicyclo[3.1.0]hexan-3-yloxy}-3-fluorophenyl)-2-{2-oxa-6-azaspiro[3.4]octan-6-yl}-5-(2,2,2-trifluoroethyl)oxazole-4-carboxamide]
EC50 (TRPML1): 10 to 1000 nM | EC50 (TFEB): 10 to 1000 nM

O=C(Nc1ccc(O[C@@H]2C[C@@H]3C[C@@H]3C2)c(F)c1)c1nc(N2CCCC2)oc1CC(F)(F)F [Example 74, N-(4-{cis-bicyclo[3.1.0]hexan-3-yloxy}-3-fluorophenyl)-2-(pyrrolidin-1-yl)-5-(2,2,2-trifluoroethyl)oxazole-4-carboxamide]
EC50 (TRPML1): 10 to 1000 nM | EC50 (TFEB): 10 to 1000 nM

O=C(Nc1ccc(O[C@@H]2C[C@@H]3C[C@@H]3C2)c(F)c1)c1nc(N2CCC3(CC3)C2)oc1CC(F)(F)F [Example 75, 2-{5-azaspiro[2.4]heptan-5-yl}-N-(4-{cis-bicyclo[3.1.0]hexan-3-yloxy}-3-fluorophenyl)-5-(2,2,2-trifluoroethyl)oxazole-4-carboxamide]
EC50 (TRPML1): 10 to 1000 nM | EC50 (TFEB): 10 to 1000 nM

O=C(Nc1ccc(OC2CCCCC2(F)F)c(F)c1)c1nc(N2CCCC2)oc1CC(F)(F)F (stereo not drawn) [Example 76, N-{4-[(2,2-difluorocyclohexyl)oxy]-3-fluorophenyl}-2-(pyrrolidin-1-yl)-5-(2,2,2-trifluoroethyl)oxazole-4-carboxamide]
EC50 (TRPML1): 10 to 1000 nM | EC50 (TFEB): 10 to 1000 nM

O=C(Nc1ccc(N2CCC(F)(F)CC2)c(F)c1)c1nc(N2CC3(C2)CC(F)(F)C3)oc1CC(F)(F)F [Example 77, 2-{6,6-difluoro-2-azaspiro[3.3]heptan-2-yl}-N-[4-(4,4-difluoropiperidin-1-yl)-3-fluorophenyl]-5-(2,2,2-trifluoroethyl)oxazole-4-carboxamide]
EC50 (TRPML1): 1000 to 10000 nM | EC50 (TFEB): 1000 to 10000 nM

O=C(Nc1ccc(N2CCCCC2)c(C(F)(F)F)c1)c1nc(N2CC3(C2)CC(F)(F)C3)oc1CC(F)(F)F [Example 78, 2-{6,6-difluoro-2-azaspiro[3.3]heptan-2-yl}-N-[4-(piperidin-1-yl)-3-(trifluoromethyl)phenyl]-5-(2,2,2-trifluoroethyl)oxazole-4-carboxamide]
EC50 (TRPML1): 1000 to 10000 nM | EC50 (TFEB): 1000 to 10000 nM
